Assay results as given in PubChem BioAssay AID2060501 (Molecular Pharmacology Branch, DTP, NCI, 2025).

Tested on: 282377-053-R-J1-PDC complex spheroids, viability
Test: Anticancer human tumor 282377-053-R-J1-PDC patient-derived colon adenocarcinoma cell line growth inhibition [GQUAD]
Conditions: for IC50: curve of first compound; for viability, T/C: stronger effect = lower value
Source text: DNA G-quadruplex Stabilizer Agents in Combinations in Complex Spheroids
A high-throughput screen of multi-cell type tumor spheroids was designed to identify active combinations of DNA G-quadruplex stabilizer agents and targeted small molecules. Complex spheroids include a stromal component modeled by human endothelial cells (HUVEC) and fibroblasts modeled by human mesenchymal stem cells (MSCs). The concentration ranges selected for each drug and investigational agent were based upon clinically achievable concentrations if the clinical Cmax of the agent was known.
Compounds. The drugs and investigational agents: pidnarulex (CX-5461; NSC782164), APTO-253 (NSC789042), BRACO-19 (NSC847499), peposertib (NSC802822), ceralasertib (NSC780249), elimusertib (NSC800525), camonsertib (NSC841442), AZD-1390 (NSC803789), olaparib (NSC753686), talazoparib (NSC767125), ART-558 (NSC835418), sotorasib (NSC818433), MRTX-1133 (NSC836407), SN-38 (NSC673596), topotecan (NSC609699), etoposide (NSC141540), doxorubicin (NSC123127), gemcitabine (NSC613327), 5-fluorouracil (NSC19893), paclitaxel (NSC125973), vemurafenib (NSC761431), panobinostat (NSC761190), R-306465 (JNJ-16241199; NSC773264), adavosertib (NSC754352), TP-3654 (NSC805149), carboplatin (NSC241240), KSQ-4279 (NSC840948), and staurosporine (NSC755774) were obtained from the National Cancer Institute (NCI) Developmental Therapeutics Program Chemical Repository (34). The FDA-approved anticancer drug set is available from the NCI Developmental Therapeutics Program. […] The stock solutions were prepared in dimethyl sulfoxide (DMSO, Sigma-Aldrich, St. Louis, MO, cat. D2650) at 800-fold the tested concentration and stored at -70 degrees C prior to their use. All drugs and investigational agents were tested over a range starting from a high concentration at or near the clinical Cmax and decreasing in half-log increments. If the clinical Cmax for an agent had not been determined, the highest concentration tested was 10 microM.
2.3 Cell Culture. All cells were maintained in an incubator at 37 degrees C and 5% CO2 with 95% humidity. The PDC lines were cultured according to standard operating procedures established by the NCI PDMR. All PDCs were thawed and cultured in Matrigel-coated flasks prepared with a working solution of 1X Ham's F-12 nutrient mix, without supplementation (Invitrogen, cat. 11765054), 100 U/mL penicillin-streptomycin (Invitrogen, cat. 15140122), and 2.5% Matrigel (Corning Inc., cat. 354248) for the first three passages. The 857933-349-R-J2-PDC line was cultured in 6C/Colon 1B media, which includes advanced DMEM/F-12 (Thermo Fisher Scientific, cat. 12634028), 10 mM HEPES (Thermo Fisher Scientific, cat. 15630080), 1X GlutaMAX supplement (Thermo Fisher Scientific, cat. 35050061), 0.1 mg/mL primocin (InvivoGen, cat. ant-pm-2), 10% defined fetal bovine serum, heat inactivated (HyClone Laboratories Inc., cat. SH30070.03HI), 50% L-WRN conditioned media (ATCC, cat. CRL-3276), 1.25 mM N-Acetyl-L-cysteine (Sigma-Aldrich, cat. A9165), 10 mM nicotinamide (Sigma-Aldrich, cat. N0636), 1X B-27 supplement (Thermo Fisher Scientific, cat. 17504044), 1X N-2 supplement (Thermo Fisher Scientific, cat. 17502048), 10 microM Y-27632 dihydrochloride (Tocris Bioscience, cat. 1254), and 50 ng/mL human EGF recombinant protein (Thermo Fisher Scientific, cat. PHG0311). The 485176-168-R4-J1-PDC line was cultured in Panc media, which includes all 6C/Colon 1B media components plus 100 ng/mL human FGF-10 (Thermo Fisher Scientific, cat. 100-26), 500 nM SB-431542 (Selleckchem, cat. S1067), and gastrin (Tocris, cat. 3006).
[…]

[1] = second compound 0.0316 µM, first compound 0.0316 µM
[2] = second compound 0.0316 µM, first compound 0.316 µM
[3] = second compound 0.1 µM, first compound 0.0316 µM
[4] = second compound 0.1 µM, first compound 0.316 µM
[5] = second compound 0.316 µM, first compound 0.0316 µM
[6] = second compound 0.316 µM, first compound 0.316 µM
[7] = second compound 1 µM, first compound 0.0316 µM
[8] = second compound 1 µM, first compound 0.316 µM
[9] = second compound 3.16 µM, first compound 0.0316 µM
[10] = second compound 3.16 µM, first compound 0.316 µM
[11] = second compound 10 µM, first compound 0.0316 µM
[12] = second compound 10 µM, first compound 0.316 µM
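Note: spheroids exposed to compounds for 7 days before readout.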
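Throughout, for viability, T/C: percent of vehicle DMSO control viability with 100% = untreated-like growth.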

CCc1c2c(nc3ccc(O)cc13)-c1cc3c(c(=O)n1C2)COC(=O)[C@]3(O)CC + Cc1cnc(CNC(=O)c2c(=O)c3ccc(N4CCCN(C)CC4)nc3n3c2sc2ccccc23)cn1
IC50 (second compound 0.0316 µM): 36.9 nM | IC50 (second compound 0.1 µM): 49.8 nM | IC50 (second compound 0.316 µM): 24.8 nM | IC50 (second compound 1 µM): 8.72 nM | IC50 (second compound 3.16 µM): < 0.999 nM | IC50 (second compound 10 µM): < 0.999 nM | viability, T/C (second compound 0.0316 µM, first compound 0.000999 µM): 117% | viability, T/C (second compound 0.0316 µM, first compound 0.00316 µM): 96.3% | viability, T/C (second compound 0.0316 µM, first compound 0.00999 µM): 57.4% | viability, T/C [1]: 56.4% | viability, T/C (second compound 0.0316 µM, first compound 0.0999 µM): 43.5% | viability, T/C [2]: 27.2% | viability, T/C (second compound 0.1 µM, first compound 0.000999 µM): 88.4% | viability, T/C (second compound 0.1 µM, first compound 0.00316 µM): 79.4% | viability, T/C (second compound 0.1 µM, first compound 0.00999 µM): 57.3% | viability, T/C [3]: 59.4% | viability, T/C (second compound 0.1 µM, first compound 0.0999 µM): 46.5% | viability, T/C [4]: 27.9% | viability, T/C (second compound 0.316 µM, first compound 0.000999 µM): 81.8% | viability, T/C (second compound 0.316 µM, first compound 0.00316 µM): 67.9% | viability, T/C (second compound 0.316 µM, first compound 0.00999 µM): 55% | viability, T/C [5]: 51.5% | viability, T/C (second compound 0.316 µM, first compound 0.0999 µM): 38.5% | viability, T/C [6]: 28.8% | viability, T/C (second compound 1 µM, first compound 0.000999 µM): 66% | viability, T/C (second compound 1 µM, first compound 0.00316 µM): 58.1% | viability, T/C (second compound 1 µM, first compound 0.00999 µM): 44.4% | viability, T/C [7]: 42.9% | viability, T/C (second compound 1 µM, first compound 0.0999 µM): 35.9% | viability, T/C [8]: 25.1% | viability, T/C (second compound 3.16 µM, first compound 0.000999 µM): 46.6% | viability, T/C (second compound 3.16 µM, first compound 0.00316 µM): 41.5% | viability, T/C (second compound 3.16 µM, first compound 0.00999 µM): 37.5% | viability, T/C [9]: 40.9% | viability, T/C (second compound 3.16 µM, first compound 0.0999 µM): 33.4% | viability, T/C [10]: 19.4% | viability, T/C (second compound 10 µM, first compound 0.000999 µM): 46.6% | viability, T/C (second compound 10 µM, first compound 0.00316 µM): 38.4% | viability, T/C (second compound 10 µM, first compound 0.00999 µM): 38.9% | viability, T/C [11]: 40.9% | viability, T/C (second compound 10 µM, first compound 0.0999 µM): 32.6% | viability, T/C [12]: 11.1%

COc1cccc2c1C(=O)c1c(O)c3c(c(O)c1C2=O)CC(O)(C(=O)CO)CC3OC1CC(N)C(O)C(C)O1 (centres undefined) + Cc1cnc(CNC(=O)c2c(=O)c3ccc(N4CCCN(C)CC4)nc3n3c2sc2ccccc23)cn1
IC50 (second compound 0.0316 µM): 970 nM | IC50 (second compound 0.1 µM): 794 nM | IC50 (second compound 0.316 µM): 545 nM | IC50 (second compound 1 µM): 331 nM | IC50 (second compound 3.16 µM): 297 nM | IC50 (second compound 10 µM): < 31.6 nM | viability, T/C [1]: 140% | viability, T/C (second compound 0.0316 µM, first compound 0.1 µM): 118% | viability, T/C [2]: 83.6% | viability, T/C (second compound 0.0316 µM, first compound 1 µM): 55.6% | viability, T/C (second compound 0.0316 µM, first compound 3.16 µM): 11.3% | viability, T/C (second compound 0.0316 µM, first compound 10 µM): 1.72% | viability, T/C [3]: 99.8% | viability, T/C (second compound 0.1 µM, first compound 0.1 µM): 97.5% | viability, T/C [4]: 82% | viability, T/C (second compound 0.1 µM, first compound 1 µM): 41.1% | viability, T/C (second compound 0.1 µM, first compound 3.16 µM): 13.1% | viability, T/C (second compound 0.1 µM, first compound 10 µM): 1.51% | viability, T/C [5]: 91.6% | viability, T/C (second compound 0.316 µM, first compound 0.1 µM): 95.1% | viability, T/C [6]: 55.5% | viability, T/C (second compound 0.316 µM, first compound 1 µM): 38.9% | viability, T/C (second compound 0.316 µM, first compound 3.16 µM): 11.9% | viability, T/C (second compound 0.316 µM, first compound 10 µM): 1% | viability, T/C [7]: 68.2% | viability, T/C (second compound 1 µM, first compound 0.1 µM): 59.6% | viability, T/C [8]: 44.3% | viability, T/C (second compound 1 µM, first compound 1 µM): 44.8% | viability, T/C (second compound 1 µM, first compound 3.16 µM): 8.25% | viability, T/C (second compound 1 µM, first compound 10 µM): 0.83% | viability, T/C [9]: 56.4% | viability, T/C (second compound 3.16 µM, first compound 0.1 µM): 62% | viability, T/C [10]: 41.3% | viability, T/C (second compound 3.16 µM, first compound 1 µM): 40.1% | viability, T/C (second compound 3.16 µM, first compound 3.16 µM): 8.56% | viability, T/C (second compound 3.16 µM, first compound 10 µM): 0.74% | viability, T/C [11]: 54.4% | viability, T/C (second compound 10 µM, first compound 0.1 µM): 46.4% | viability, T/C [12]: 47% | viability, T/C (second compound 10 µM, first compound 1 µM): 39.9% | viability, T/C (second compound 10 µM, first compound 3.16 µM): 2.37% | viability, T/C (second compound 10 µM, first compound 10 µM): 0.53%
